From PubChem BioAssay AID1259407 (Chemical Carcinogenesis Research Information System (CCRIS), 2018)
The source made the active and inactive calls. How the calls were made is not given here.

Test system: CCRIS mutagenicity, Ames/micronucleus/aberration tests
Assay: CCRIS mutagenicity studies
[1] = Test System: AMES SALMONELLA TYPHIMURIUM, Strain/Indicator: TA100, Metabolic Activation: NONE, Method: STANDARD PLATE
[2] = Test System: AMES SALMONELLA TYPHIMURIUM, Strain/Indicator: TA100, Metabolic Activation: RAT, LIVER, S-9, AROCLOR 1254, Method: STANDARD PLATE
[3] = Test System: AMES SALMONELLA TYPHIMURIUM, Strain/Indicator: TA102, Metabolic Activation: NONE, Method: STANDARD PLATE
[4] = Test System: AMES SALMONELLA TYPHIMURIUM, Strain/Indicator: TA102, Metabolic Activation: RAT, LIVER, S-9, AROCLOR 1254, Method: STANDARD PLATE

[N-]=[N+]=N[C@@H](c1ccccc1)[C@H](O)CO
mutagenic call (Test System: AMES SALMONELLA TYPHIMURIUM, Strain/Indicator: TA100, Metabolic Activation: RAT, LIVER, S-9, PCB, Method: PREINCUBATION): active; positive

Cc1ccc2c(c1)c(=NC(=O)c1ccccc1[N+](=O)[O-])sn2C(=O)c1ccccc1[N+](=O)[O-]
mutagenic call (Test System: AMES SALMONELLA TYPHIMURIUM, Strain/Indicator: TA100, Metabolic Activation: S-9, Method: STANDARD PLATE): inactive; negative

Oc1cccc2cc3c4ccccc4c4ccccc4c3cc12
mutagenic call (Test System: AMES SALMONELLA TYPHIMURIUM, Strain/Indicator: TA100, Metabolic Activation: RAT, LIVER, S-9, AROCLOR 1254, Method: PREINCUBATION): active; positive

NC(=O)N/N=C/c1ccco1
mutagenic call (Test System: E. COLI, Strain/Indicator: WP2 UVRA, Metabolic Activation: NONE, Method: SPOT): active; positive

CC(=O)OO[N+](=O)[O-]
mutagenic call (Test System: AMES SALMONELLA TYPHIMURIUM, Strain/Indicator: TA100, Metabolic Activation: NONE): active; positive | mutagenic call (Test System: AMES SALMONELLA TYPHIMURIUM, Strain/Indicator: TA100, Metabolic Activation: RAT, LIVER, S-9, AROCLOR 1254): active; positive

Cc1c2ccccc2c(CO)c2c3c(ccc12)[C@@H](O)[C@H](O)C=C3
mutagenic call (Test System: CHINESE HAMSTER V-79, Strain/Indicator: V-79/6-THIOGUANINE, Metabolic Activation: CELL-MEDIATED, Method: STANDARD PLATE): active; positive | mutagenic call (Test System: CHINESE HAMSTER V-79, Strain/Indicator: V-79/OUABAIN, Metabolic Activation: CELL-MEDIATED, Method: STANDARD PLATE): active; positive

Cc1ccc(N(N)c2ccc(C)cc2)cc1
mutagenic call [1]: inactive; negative | mutagenic call [2]: active; positive | mutagenic call [3]: active; positive | mutagenic call [4]: active; positive

O=C([O-])[C@H](O)[C@@H](O)[C@H](O)[C@H](O)CO.O=C([O-])[C@H](O)[C@@H](O)[C@H](O)[C@H](O)CO.[Mn+2]
mutagenic call (Test System: AMES SALMONELLA TYPHIMURIUM, Strain/Indicator: TA98, Metabolic Activation: NONE, Method: STANDARD PLATE): inactive; negative | mutagenic call (Test System: AMES SALMONELLA TYPHIMURIUM, Strain/Indicator: TA98, Metabolic Activation: RAT, LIVER, S-9, AROCLOR 1254, Method: STANDARD PLATE): inactive; negative | mutagenic call [1]: inactive; negative | mutagenic call [2]: inactive; negative | mutagenic call (Test System: AMES SALMONELLA TYPHIMURIUM, Strain/Indicator: TA1535, Metabolic Activation: NONE, Method: STANDARD PLATE): inactive; negative | mutagenic call (Test System: AMES SALMONELLA TYPHIMURIUM, Strain/Indicator: TA1535, Metabolic Activation: RAT, LIVER, S-9, AROCLOR 1254, Method: STANDARD PLATE): inactive; negative | mutagenic call (Test System: AMES SALMONELLA TYPHIMURIUM, Strain/Indicator: TA1537, Metabolic Activation: NONE, Method: STANDARD PLATE): inactive; negative | mutagenic call (Test System: AMES SALMONELLA TYPHIMURIUM, Strain/Indicator: TA1537, Metabolic Activation: RAT, LIVER, S-9, AROCLOR 1254, Method: STANDARD PLATE): inactive; negative | mutagenic call (Test System: AMES SALMONELLA TYPHIMURIUM, Strain/Indicator: TA1538, Metabolic Activation: NONE, Method: STANDARD PLATE): inactive; negative | mutagenic call (Test System: AMES SALMONELLA TYPHIMURIUM, Strain/Indicator: TA1538, Metabolic Activation: RAT, LIVER, S-9, AROCLOR 1254, Method: STANDARD PLATE): inactive; negative | mutagenic call (Test System: E. COLI, Strain/Indicator: WP2, Metabolic Activation: NONE, Method: STANDARD PLATE): inactive; negative | mutagenic call (Test System: E. COLI, Strain/Indicator: WP2, Metabolic Activation: RAT, LIVER, S-9, AROCLOR 1254, Method: STANDARD PLATE): inactive; negative

CC(=O)O[C@H]1CC[C@@]2(C)C(=CC[C@H]3[C@@H]4CC[C@H]([C@H](C)CCCC(C)C)[C@@]4(C)CC[C@@H]32)C1
mutagenic call (Test System: AMES SALMONELLA TYPHIMURIUM, Strain/Indicator: TA97A, Metabolic Activation: NONE, Method: STANDARD PLATE): inactive; negative | mutagenic call (Test System: AMES SALMONELLA TYPHIMURIUM, Strain/Indicator: TA97A, Metabolic Activation: RAT, LIVER, S-9, AROCLOR 1254, Method: STANDARD PLATE): inactive; negative | mutagenic call [1]: inactive; negative | mutagenic call [2]: inactive; negative | mutagenic call [3]: inactive; negative | mutagenic call [4]: inactive; negative | mutagenic call (Test System: AMES SALMONELLA TYPHIMURIUM, Strain/Indicator: TA104, Metabolic Activation: NONE, Method: STANDARD PLATE): inactive; negative | mutagenic call (Test System: AMES SALMONELLA TYPHIMURIUM, Strain/Indicator: TA104, Metabolic Activation: RAT, LIVER, S-9, AROCLOR 1254, Method: STANDARD PLATE): inactive; negative

OCCOc1ccccc1
mutagenic call (Test System: Ames Salmonella typhimurium, Strain/Indicator: TA98, Metabolic Activation: None, Method: Preincubation): inactive; negative | mutagenic call (Test System: Ames Salmonella typhimurium, Strain/Indicator: TA98, Metabolic Activation: Rat, Liver, S-9, Phenobarbital and 5,6-benzoflavone, Method: Preincubation): inactive; negative | mutagenic call (Test System: Ames Salmonella typhimurium, Strain/Indicator: TA100, Metabolic Activation: None, Method: Preincubation): inactive; negative | mutagenic call (Test System: Ames Salmonella typhimurium, Strain/Indicator: TA100, Metabolic Activation: Rat, Liver, S-9, Phenobarbital and 5,6-benzoflavone, Method: Preincubation): inactive; negative | mutagenic call (Test System: Ames Salmonella typhimurium, Strain/Indicator: TA1535, Metabolic Activation: None, Method: Preincubation): inactive; negative | mutagenic call (Test System: Ames Salmonella typhimurium, Strain/Indicator: TA1535, Metabolic Activation: Rat, Liver, S-9, Phenobarbital and 5,6-benzoflavone, Method: Preincubation): inactive; negative | mutagenic call (Test System: Ames Salmonella typhimurium, Strain/Indicator: TA1537, Metabolic Activation: None, Method: Preincubation): inactive; negative | mutagenic call (Test System: Ames Salmonella typhimurium, Strain/Indicator: TA1537, Metabolic Activation: Rat, Liver, S-9, Phenobarbital and 5,6-benzoflavone, Method: Preincubation): inactive; negative | mutagenic call (Test System: E. coli, Strain/Indicator: WP2uvrA/pKM101, Metabolic Activation: None, Method: Preincubation): inactive; negative | mutagenic call (Test System: E. coli, Strain/Indicator: WP2uvrA/pKM101, Metabolic Activation: Rat, Liver, S-9, Phenobarbital and 5,6-benzoflavone, Method: Preincubation): inactive; negative
